The target of data set [1] is T1, aldose reductase (Sus scrofa, UniProt P80276).
T1 construct: porcine crystalline lens stored at -80° C. was homogenized in distilled water; from tissue; host or cells: porcine crystalline lens
Nature of the data set: Aldose reductase inhibitory activity (porcine crystalline lens enzyme). It counts as biochemical. Conditions: d1-glyceraldehyde 3 mM, pH 6.2, 25° C., 2 minutes. As to the method:
Aldose reductase enzyme standard was prepared from porcine crystalline lens by the method of Hayman et al. (cf., S. Hayman et al., Journal of Biological Chemistry, 240, 877-882, 1965). That is, porcine crystalline lens stored at -80° C. was homogenized in distilled water followed by centrifugation at 10,000 XG for 15 minutes. The supernatant was dissolved to make 40% ammonium sulfate solution. The supernatant centrifuged at 10,000 XG for further 10 minutes was dialyzed to 0.05 M sodium chloride solution overnight. The thus obtained dialysate was used as the enzyme standard.
The activity of aldose reductase was determined by the method of Hayman et al. supra. That is, 25 μl of the enzyme solution described above and […] of a drug solution in 1% DMSO having various concentrations were added to 200 μl of 40 mM phosphate buffer (pH 6.2) prepared to contain […] lithium sulfate and 0.1 MM NADPH (reduced nicotinamide adenine dinucleotide phosphate) in final concentrations and Containing 3 mM d1-glyceraldehyde as substrate, respectively. Thereafter, the mixture was reacted at 25° C. for 2 minutes and change in absorbance at 340 nm was determined using COBAS FARA II (Roche Co.).

In data set [2] the test system is ICR strain mice. Description: Safety test, single oral administration in mice with 14 days observation. In kind it is in vivo. Conditions: 300 mg/kg oral, male ICR mice. As for the experimental part:
Next, safety of the compounds of the present invention was verified by the following test.
After normal ICR strain mice (male, 7 weeks age, 5 mice being into one group) was fasted for 18 hours, each compound (300 mg/kg) of Examples 1311, 132, 134, 156, 173, 179, 183 and 188 was orally administered in the form of 0.5% carboxymethylcellulose suspension. In the control group, 0.5% carboxymethylcellulose solution alone was orally administered. […] During the observation, mice were free access to feed and water.

In data set [3] the test system is tissue sorbitol in streptozotocin-induced diabetic rats. Description: Inhibitory activity of accumulation of tissue sorbitol in streptozotocin-induced diabetic rats. In kind it is in vivo, Sprague-Dawley rats. The note with it: 30 mg/kg oral 4, 8 and 24 hours after streptozotocin, control = 100%, Tukey's test *p < 0.05, **p < 0.01; for Accumulation of Tissue Sorbitol (%), Nerve: sciatic nerve. As for the experimental part: 4) Inhibitory activity of accumulation of tissue sorbitol in streptozatocini-induced diabetic rats.
Sprague-Dawley rats (male,6 weeks of age, one group composed of 5 to 6 rats), fasted overnight, were made diabetic by single intravenous injection of 60 mg/kg body weight of streptozotocin (SIGMA Co. ) , which had been freshly dissolved in normal saline solution.
The compound was orally administered in the form of 0.5% carboxymethylcellulose suspension in a dose of 30 mg/kg 4, 8 and 24 hours after the injection of streptozotocin. During the test, rats were free access to feed and water. Three hours after the final administration, the sorbitol contens in tissues (red blood cell, sciatic nerve, lens) Were determined by the enzyme method of Bergmeyer et al. [cf., H. Y. Bergmeyer et al., Methods of Enzymatic Analysis, 3, 1323-1330, 1974], using SDH (sorbitol dehydrogenase) and AND (β-nicotinamide adenine dinucleotide). The results are shown by percentage (%) when the value obtained with control group administered with 0.5% carboxymethylcellulose solution as a solvent instead of the compound was made 100%.

SMILES strings stand for the structures.

What is called IC50 is the midpoint of a concentration-inhibition curve. The compound `O=C(O)CC1Sc2ccccc2N(Cc2nc3cc(F)ccc3s2)C1=O` (centres unmarked) [Example 131, 2-[4-(5-fluorobenzothiazol-2-yl]methyl-3,4-dihydro-3-oxo-2H-1,4-benzothiazin-2-yl]acetic acid] yielded an IC50 in data set [1] of 15 nM. Besides, in data set [2], the body weight entry is “progressed as in the control group” and the mice dead entry is “none”.
For the compound `Cc1ccc2c(c1)N(Cc1nc3cc(F)ccc3s1)C(=O)C(CC(=O)O)S2` (centres unmarked) [Example 132, 2-[4-(5-Fluorobenzothiazol-2-yl)methyl-6-methyl-3,4-dihydro-3-oxo-2H -1,4-benzothiazin-2-yl]acetic acid], in data set [2], the body weight result is “progressed as in the control group” and the mice dead entry is “none”.
In the case of `CCOc1ccc2c(c1)SC(CC(=O)O)C(=O)N2Cc1nc2cc(F)ccc2s1` (centres unmarked) [Example 133, 2-[7-Ethoxy-4-(5-fluorobenzothiazol-2-yl)methyl-3,4-dihydro-3-oxo-2H-1,4-benzothiazin-2-yl]acetic acid], the IC50 in data set [1] worked out at 15 nM.
For the compound `Cc1cc(C)c2c(c1)N(Cc1nc3cc(F)ccc3s1)C(=O)C(CC(=O)O)S2` (centres unmarked) [Example 134, 2-[6,8-Dimethyl-4-(5-fluorobenzothiazol-2-yl)methyl-3,4-dihydro-3-oxo-2H-1,4-benzothiazin-2-yl]acetic acid], in data set [2], the body weight result is “progressed as in the control group” and the mice dead entry is reported as “none”.
Consider `Cc1ccc2c(c1)N(Cc1nc3cc(Cl)ccc3s1)C(=O)C(CC(=O)O)S2` (centres unmarked) [Example 139], for which, in data set [1], half-maximal inhibition (IC50) was put at 14 nM.
For `O=C(O)CC1Sc2ccccc2N(Cc2nc3c(Cl)c(Cl)ccc3s2)C1=O` (centres unmarked) [Example 154, 2-[4-(4,5-Dichlorobenzothiazol-2-yl)methyl-3,4-dihydro-3-oxo-2H-1,4-benzothiazin-2-yl]acetic acid], in data set [3], the “Accumulation of Tissue Sorbitol (%), Lens” value (“Accumulation … (%), Lens” below) came out at 59.0%; the “Accumulation of Tissue Sorbitol (%), Red Blood Cell” value (from here on “Accumulation … (%), Red Blood Cell”) is 3.3%; the “Accumulation of Tissue Sorbitol (%), Nerve” value (“Accumulation … (%), Nerve” for short) worked out at 18.6%.
As to `O=C(O)CC1Sc2ccccc2N(Cc2nc3ccc(F)c(F)c3s2)C1=O` (centres unmarked) [Example 155, 2-[4-(6,7-Difluorobenzothiazol-2-yl)methyl-3,4-dihydro-3-oxo-2H-1,4-benzothiazin-2-yl]acetic acid], in data set [3], the “Accumulation … (%), Lens” value was found to be 36.8%; the “Accumulation … (%), Red Blood Cell” value was found to be 0.0%; the “Accumulation … (%), Nerve” value is recorded as 7.0%. Further, the IC50 in data set [1] turned out to be 14 nM.
In the case of `Cc1ccc2c(c1)N(Cc1nc3c(Cl)c(Cl)ccc3s1)C(=O)C(CC(=O)O)S2` (centres unmarked) [Example 156, 2-[4-(4,5-Dichlorobenzothiazol-2-yl)methyl-6-methyl-3,4-dihydro-3-oxo-2H-1,4-benzothiazin-2-yl]acetic acid], in data set [2], the body weight result was “progressed as in the control group” and the mice dead result is “none”.
Regarding `O=C(O)CC1Sc2ccccc2N(Cc2nc3c(F)ccc(F)c3s2)C1=O` (centres unmarked) [Example 158, 2-[4-(4,7-Difluorobenzothiazol-2-yl)methyl-3,4-dihydro-3-oxo-2H-1,4-benzothiazin-2-yl]acetic acid], in data set [3], the “Accumulation … (%), Lens” value was 58.4%; the “Accumulation … (%), Red Blood Cell” value amounted to 39.2%; the “Accumulation … (%), Nerve” value is reported as 33.1%.
With `O=C(O)CC1Sc2ccccc2N(Cc2nc3ccc(Cl)c(Cl)c3s2)C1=O` (centres unmarked) [Example 160, 2-[4-(6,7-Dichlorobenzothiazol-2-.yl)methyl-3,4-dihydro-3-oxo-2H-1,4-benzothiazin-2-yl]acetic acid], the IC50 in data set [1] worked out at 14 nM.
`O=C(O)CC1Sc2ccccc2N(Cc2nc3c(Cl)c(Cl)cc(Cl)c3s2)C1=O` (centres unmarked) [Example 166, 2-[4-(4,5,7-Trichlorobenzothiazol-2-yl)methyl-3,4-dihydro-3-oxo-2H-1,4-benzothiazin-2-yl]acetic acid] had a half-maximal inhibitory concentration (IC50) in data set [1] of 9.1 nM.
On to `O=C(O)CC1Sc2ccccc2N(Cc2nc3cc(F)cc(F)c3s2)C1=O` (centres unmarked) [Example 173, 2-[4-(5,7-Difluorobenzothiazol-2-yl)methyl-3,4-dihydro-3-oxo-2H-1,4-benzothiazin-2-yl]acetic acid], for which 14 nM corresponded to half-maximal inhibition in data set [1] (IC50). For the same compound, in data set [2], the body weight entry is “progressed as in the control group” and the mice dead entry is recorded as “none”.
`Cc1ccc2c(c1)N(Cc1nc3c(F)cccc3s1)C(=O)C(CC(=O)O)S2` (centres unmarked) [Example 176, 2-[4-(4-Fluorobenzothiazol-2-yl)methyl-6-methyl-3,4-dihydro-3-oxo-2H-1,4-benzothiazin-2-yl]acetic acid] yielded a concentration for half-maximal inhibition (IC50) in data set [1] of 14 nM.
As to `O=C(O)CC1Sc2cccc(F)c2N(Cc2nc3cc(F)ccc3s2)C1=O` (centres unmarked) [Example 177, 2-[5-Fluoro-4-(5-fluorobenzothiazol-2-yl)methyl-3,4-dihydro-3-oxo-2H-1,4-benzothiazin-2-yl]acetic acid], the 50% inhibitory concentration (IC50) in data set [1] was determined as 16 nM.
Regarding `Cc1ccc2c(c1)N(Cc1nc3cc(F)cc(F)c3s1)C(=O)C(CC(=O)O)S2` (centres unmarked) [Example 179, 2-[4-(5,7-Difluorobenzothiazol-2-yl)methyl-6-methyl-3,4-dihydro-3-oxo-2H-1,4-benzothiazin-2-yl]acetic acid], in data set [2], the body weight entry is recorded as “progressed as in the control group” and the mice dead result is “none”.
The compound `O=C(O)CC1Sc2cc(F)ccc2N(Cc2nc3cc(F)cc(F)c3s2)C1=O` (centres unmarked) [Example 182, 2-[4-(5,7-Difluorobenzothiazol-2-yl)methyl-7-fluoro-3,4-dihydro-3-oxo-2H-1,4-benzothiazin-2-yl]acetic acid] returned a half-inhibitory concentration (IC50) in data set [1] of 12 nM.
`O=C(O)CC1Sc2cc(OC(F)(F)F)ccc2N(Cc2nc3cc(F)cc(F)c3s2)C1=O` (centres unmarked) [Example 187, 2-[4-(5,7-Difluorobenzothiazol-2-yl)methyl-7-trifluoromethoxy-3,4-dihydro-3-oxo-2H-1,4-benzothiazin-2-yl]acetic acid]: the IC50 in data set [1] amounted to 9.8 nM.
The compound `Cc1ccc2c(c1)SC(CC(=O)O)C(=O)N2Cc1nc2ccc(F)c(F)c2s1` (centres unmarked) [Example 199, 2-[4-(6,7-Difluorobenzothiazol-2-yl)methyl-7-methyl-3,4-dihydro-3-oxo-2H-1,4-benzothiazin-2-yl]acetic acid] registered an IC50 in data set [1] of 7.7 nM.
On to `O=C(O)CC1Sc2cc(Cl)ccc2N(Cc2nc3c(F)c(F)cc(F)c3s2)C1=O` (centres unmarked) [Example 202, 2-[4-(4,5,7-Trifluorobenzothiazol-2-yl)methyl-7-chloro-3,4-dihydro-3-oxo-2H-1,4-benzothiazin-2-yl]acetic acid], for which it took 8.7 nM to reach half-maximal inhibition in data set [1] (IC50).
For the compound `COc1ccc2c(c1)N(Cc1nc3c(Cl)c(Cl)ccc3s1)C(=O)C(CC(=O)O)S2` (centres unmarked) [Example 206, 2-[4-(4,5-Dichlorobenzothiazol-2-yl)methyl-6-methoxy-3,4-dihydro-3-oxo-2H-1,4-benzothiazin-2-yl]acetic acid], in data set [1], the IC50 stood at 6.8 nM.
As to `O=C(O)CC1Sc2c(F)cccc2N(Cc2nc3c(F)c(F)cc(F)c3s2)C1=O` (centres unmarked) [Example 208, 2-[4-(4,5,7-Trifluorobenzothiazol-2-yl)methyl-8-fluoro-3,4-dihydro-3-oxo-2H-1,4-benzothiazin-2-yl]acetic acid], in data set [3], the “Accumulation … (%), Lens” value worked out at 31.5%; the “Accumulation … (%), Red Blood Cell” value was found to be 22.9%; the “Accumulation … (%), Nerve” value was 0.0%.
Regarding `O=C(O)CC1Sc2ccc(F)cc2N(Cc2nc3c(F)c(F)ccc3s2)C1=O` (centres unmarked) [Example 209, 2-[4-(4,5-Difluorobenzothiazol-2-yl)methyl-6-fluoro-3,4-dihydro-3-oxo-2H-1,4-benzothiazin-2-yl]acetic acid], in data set [3], the “Accumulation … (%), Lens” value came to 25.2%; the “Accumulation … (%), Red Blood Cell” value stood at 24.7%; the “Accumulation … (%), Nerve” value is listed as 3.1%.

The values above are taken from patent US5252571A, “1,4-benzothiazine-2-acetic acid derivatives” (Sapporo Breweries Limited, priority 1990, dated 1993).
